Assay results: patent publication US20250145665A1, “MACROCYCLIC PEPTIDES USEFUL AS MODULATORS OF TNF ALPHA” (Bristol-Myers Squibb Company, priority 2023, published 2025)
Starred links: 1 amine or outer side, 2 acyl side, 3 side chain; linkers in the order of their positions; H or OH if unused. Positions of bridges follow the written chain, without caps; N, C: chain ends. Non-standard residues stand in square brackets, D forms with d. Residues, ends and D or L forms follow the SMILES beside them. *: point of attachment. Bip(4'-(3-HOOC-benzamido)) = N[C@@H](Cc1ccc(-c2ccc(NC(=O)c3cccc(C(=O)O)c3)cc2)cc1)C(=O)O; X77 = Cc1ccc(C(=O)O)cc1C(=O)Nc1ccc(-c2ccc(C[C@H](N[*:1])C(=O)[*:2])cc2)cc1; Bip(4'-NHBz) = N[C@@H](Cc1ccc(-c2ccc(NC(=O)c3ccccc3)cc2)cc1)C(=O)O; Bip(4'-NH) = O=C([C@H](Cc1ccc(-c2ccc(N[*:3])cc2)cc1)N[*:1])[*:2]; dArg(ω-(3-HO-benzyl)) = N=C(NCCC[C@@H](N)C(=O)O)NCc1cccc(O)c1; Bip(4'-CONHMe) = CNC(=O)c1ccc(-c2ccc(C[C@H](N)C(=O)O)cc2)cc1; Indazole3carbonyl(1-CH2COOH) = O=C(O)Cn1nc(C(=O)*)c2ccccc21; Bip(4'-COOH) = N[C@@H](Cc1ccc(-c2ccc(C(=O)O)cc2)cc1)C(=O)O; Bip(4'-NHAc) = CC(=O)Nc1ccc(-c2ccc(C[C@H](N)C(=O)O)cc2)cc1; X7 = N=C(NCCC[C@@H](N[*:1])C(=O)[*:2])NCc1ccc2occc2c1; Ala(morpholin-4-yl) = N[C@@H](CN1CCOCC1)C(=O)O; Benzoyl(3-OCH2COOH) = O=C(O)COc1cccc(C(=O)*)c1; Benzoyl(4-OCH2COOH) = O=C(O)COc1ccc(C(=O)*)cc1; Phe(4-CONH2) = NC(=O)c1ccc(C[C@H](N)C(=O)O)cc1; Bip = N[C@@H](Cc1ccc(-c2ccccc2)cc1)C(=O)O; Phe(3-OMe) = COc1cccc(C[C@H](N)C(=O)O)c1; Pro(4S-NH2) = N[C@@H]1CN[C@H](C(=O)O)C1; Ala(2-furyl) = N[C@@H](Cc1ccco1)C(=O)O; 2Pal = N[C@@H](Cc1ccccn1)C(=O)O; Tic = O=C(O)[C@@H]1Cc2ccccc2CN1; 2Thi = N[C@@H](Cc1cccs1)C(=O)O; Cha = N[C@@H](CC1CCCCC1)C(=O)O; Tle = CC(C)(C)[C@H](N)C(=O)O; Aze = O=C(O)[C@@H]1CCN1; Sar = CNCC(=O)O

What follows are compounds tested against TNFα (Homo sapiens, UniProt P01375) (assay: TNF-Induced HEK-Blue Assay). Details: not given.
TNFα, sequence (P01375 77-233 limits assumed): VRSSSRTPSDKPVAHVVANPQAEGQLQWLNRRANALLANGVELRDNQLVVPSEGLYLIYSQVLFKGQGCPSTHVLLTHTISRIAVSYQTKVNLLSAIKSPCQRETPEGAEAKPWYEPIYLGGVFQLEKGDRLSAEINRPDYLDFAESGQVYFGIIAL
Format: cell-based

SMILES	IC50 [nM]
CC(C)C[C@@H]1NC(=O)[C@H](CCCNC(=N)N)NC(=O)[C@H](C(C)C)NC(=O)[C@@H]2CCCN2C(=O)[C@H](C(C)C)NC(=O)[C@@H](CCCNC(=N)NCc2ccc3occc3c2)NC(=O)[C@H](CC(=O)O)NC(=O)[C@@H]2CCCN2C(=O)CN(C)C(=O)[C@H](Cc2ccc(-c3ccc(NC(=O)c4nn(CC(=O)O)c5ccccc45)cc3)cc2)NC(=O)[C@H](Cc2ccc(-c3ccccc3)cc2)NC(=O)[C@H](CN2CCOCC2)NC(=O)CSC[C@@H](C(=O)NCC(N)=O)NC1=O [Example 449] ({CH2CO}-[Ala(morpholin-4-yl)][Bip][Bip(4'-NH)](Indazole3carbonyl(1-CH2COOH))[Sar]PD[X7]VPVRLCG-NH2; thioether N-13)	< 50
CC(C)C[C@@H]1NC(=O)[C@H](Cc2ccc(O)cc2)NC(=O)[C@H](C(C)C)NC(=O)[C@@H]2Cc3ccccc3CN2C(=O)[C@H](C(C)C)NC(=O)[C@@H](CCCNC(=N)N)NC(=O)[C@H](CC(=O)O)NC(=O)[C@@H]2CCCN2C(=O)CN(C)C(=O)[C@H](Cc2ccc(-c3ccc(NC(=O)c4ccccc4)cc3)cc2)NC(=O)[C@H](Cc2ccc(-c3ccc(C(=O)O)cc3)cc2)NC(=O)[C@H](CC2CCCCC2)NC(=O)CSC[C@@H](C(=O)NCC(N)=O)NC1=O [Example 383] ({CH2CO}-[Cha][Bip(4'-COOH)][Bip(4'-NHBz)][Sar]PD[dR]V[Tic]VYLCG-NH2; thioether N-13)	50 to 200
CC(C)C[C@@H]1NC(=O)[C@H](Cc2cccs2)NC(=O)[C@H](C(C)C)NC(=O)[C@@H]2CCCN2C(=O)[C@H](C(C)C)NC(=O)[C@@H](CCCNC(=N)NCc2cccc(O)c2)NC(=O)[C@H](CC(=O)O)NC(=O)[C@H](Cc2ccccn2)NC(=O)CN(C)C(=O)[C@H](Cc2ccc(-c3ccc(NC(=O)c4nn(CC(=O)O)c5ccccc45)cc3)cc2)NC(=O)[C@H](Cc2ccc(-c3ccccc3)cc2)NC(=O)[C@H](CN2CCOCC2)NC(=O)CSC[C@@H](C(=O)NCC(N)=O)NC1=O [Example 626] ({CH2CO}-[Ala(morpholin-4-yl)][Bip][Bip(4'-NH)](Indazole3carbonyl(1-CH2COOH))[Sar][2Pal]D[dArg(ω-(3-HO-benzyl))]VPV[2Thi]LCG-NH2; thioether N-13)	50 to 200

Same assay, conditions: HEK-Blue-CD40L cells, NF-kB-driven secreted alkaline phosphatase reporter; TNFα 0.5 ng/ml; 18 h; read-out: TNF induced HEK-Blue assay IC50 value

SMILES	IC50 [nM]
CC(C)C[C@@H]1NC(=O)[C@H](Cc2ccc(O)cc2)NC(=O)[C@H](C(C)C)NC(=O)CN(C)C(=O)[C@H](C(C)C)NC(=O)[C@@H](CCCNC(=N)N)NC(=O)[C@H](CC(=O)O)NC(=O)[C@H](Cc2ccc(O)cc2)NC(=O)CN(C)C(=O)[C@H](Cc2ccc(-c3ccccc3)cc2)NC(=O)[C@H](Cc2ccc(-c3ccccc3)cc2)NC(=O)[C@H](CN2CCOCC2)NC(=O)CSC[C@@H](C(=O)NCC(N)=O)NC1=O [Example 134] ({CH2CO}-[Ala(morpholin-4-yl)][Bip][Bip][Sar]YD[dR]V[Sar]VYLCG-NH2; thioether N-13)	50 to 200
CC(C)C[C@@H]1NC(=O)[C@H](CCCNC(=N)N)NC(=O)[C@H](C(C)C)NC(=O)[C@@H]2CCCN2C(=O)[C@H](C(C)C)NC(=O)[C@@H](CCCNC(=N)N)NC(=O)[C@H](CC(=O)O)NC(=O)[C@H](Cc2ccc(O)cc2)NC(=O)CN(C)C(=O)[C@H](Cc2ccc(-c3ccccc3)cc2)NC(=O)[C@H](Cc2ccc(-c3ccccc3)cc2)NC(=O)[C@H](CN2CCOCC2)NC(=O)CSC[C@@H](C(=O)NCC(N)=O)NC1=O [Example 76] ({CH2CO}-[Ala(morpholin-4-yl)][Bip][Bip][Sar]YD[dR]VPVRLCG-NH2; thioether N-13)	< 50
CC(C)C[C@@H]1NC(=O)[C@H](Cc2ccc(C(N)=O)cc2)NC(=O)[C@H](C(C)C)NC(=O)[C@@H]2CCCN2C(=O)[C@H](C(C)C)NC(=O)[C@@H](CCCNC(=N)N)NC(=O)[C@H](CC(=O)O)NC(=O)[C@H](Cc2ccc(O)cc2)NC(=O)CN(C)C(=O)[C@H](Cc2ccc(-c3ccccc3)cc2)NC(=O)[C@H](Cc2ccc(-c3ccccc3)cc2)NC(=O)[C@H](CN2CCOCC2)NC(=O)CSC[C@@H](C(=O)NCC(N)=O)NC1=O [Example 151] ({CH2CO}-[Ala(morpholin-4-yl)][Bip][Bip][Sar]YD[dR]VPV[Phe(4-CONH2)]LCG-NH2; thioether N-13)	50 to 200
CC(=O)Nc1ccc(-c2ccc(C[C@@H]3NC(=O)[C@H](Cc4ccc(-c5ccccc5)cc4)NC(=O)[C@H](CN4CCOCC4)NC(=O)CSC[C@@H](C(=O)NCC(N)=O)NC(=O)[C@H](CC(C)C)NC(=O)[C@H](Cc4ccc(O)cc4)NC(=O)[C@H](C(C)C)NC(=O)[C@@H]4CCCN4C(=O)[C@H](CC(N)=O)NC(=O)[C@@H](CCCNC(=N)N)NC(=O)[C@H](CC(=O)O)NC(=O)[C@H](Cc4ccccn4)NC(=O)CN(C)C3=O)cc2)cc1 [Example 173] ({CH2CO}-[Ala(morpholin-4-yl)][Bip][Bip(4'-NHAc)][Sar][2Pal]D[dR]NPVYLCG-NH2; thioether N-13)	50 to 200
CC(=O)Nc1ccc(-c2ccc(C[C@@H]3NC(=O)[C@H](Cc4ccc(-c5ccccc5)cc4)NC(=O)[C@H](CN4CCOCC4)NC(=O)CSC[C@@H](C(=O)NCC(N)=O)NC(=O)[C@H](CC(C)C)NC(=O)[C@H](Cc4cnc[nH]4)NC(=O)[C@H](C(C)C)NC(=O)[C@@H]4CCCN4C(=O)[C@H](C(C)C)NC(=O)[C@@H](CCCNC(=N)N)NC(=O)[C@H](CC(=O)O)NC(=O)[C@H](Cc4ccco4)NC(=O)CN(C)C3=O)cc2)cc1 [Example 519] ({CH2CO}-[Ala(morpholin-4-yl)][Bip][Bip(4'-NHAc)][Sar][Ala(2-furyl)]D[dR]VPVHLCG-NH2; thioether N-13)	50 to 200
CC[C@H](C)[C@@H]1NC(=O)[C@@H](CCCNC(=N)N)NC(=O)[C@H](CC(=O)O)NC(=O)[C@H](Cc2cnc[nH]2)NC(=O)CN(C)C(=O)[C@H](Cc2ccc(-c3ccc(NC(=O)c4cc(C(=O)O)ccc4C)cc3)cc2)NC(=O)[C@H](Cc2ccc(-c3ccccc3)cc2)NC(=O)[C@H](CC2CCCCC2)NC(=O)CSC[C@@H](C(=O)NCC(N)=O)NC(=O)[C@H](CC(C)C)NC(=O)[C@H](Cc2cnc[nH]2)NC(=O)[C@H](C(C)C)NC(=O)[C@@H]2CCCN2C1=O [Example 450] ({CH2CO}-[Cha][Bip][X77][Sar]HD[dR]IPVHLCG-NH2; thioether N-13)	< 50
CC(=O)Nc1ccc(-c2ccc(C[C@@H]3NC(=O)[C@H](Cc4ccc(-c5ccccc5)cc4)NC(=O)[C@H](CN4CCOCC4)NC(=O)CSC[C@@H](C(=O)NCC(N)=O)NC(=O)[C@H](CC(C)C)NC(=O)[C@H](Cc4ccc(O)cc4)NC(=O)[C@H](C(C)C)NC(=O)[C@@H]4CCCN4C(=O)[C@H](C(C)C)NC(=O)[C@@H](CCCNC(=N)N)NC(=O)[C@H](CC(=O)O)NC(=O)[C@@H]4C[C@H](N)CN4C(=O)CN(C)C3=O)cc2)cc1 [Example 184] ({CH2CO}-[Ala(morpholin-4-yl)][Bip][Bip(4'-NHAc)][Sar][Pro(4S-NH2)]D[dR]VPVYLCG-NH2; thioether N-13)	< 50
CC(=O)Nc1ccc(-c2ccc(C[C@@H]3NC(=O)[C@H](Cc4ccc(-c5ccc(C(=O)O)cc5)cc4)NC(=O)[C@H](CC4CCCCC4)NC(=O)CSC[C@@H](C(=O)NCC(N)=O)NC(=O)[C@H](CC(C)C)NC(=O)[C@H](Cc4ccc(O)cc4)NC(=O)[C@H](C(C)C)NC(=O)[C@@H]4Cc5ccccc5CN4C(=O)[C@H](C(C)C)NC(=O)[C@@H](CCCNC(=N)N)NC(=O)[C@H](CC(=O)O)NC(=O)[C@@H]4CCCN4C(=O)CN(C)C3=O)cc2)cc1 [Example 275] ({CH2CO}-[Cha][Bip(4'-COOH)][Bip(4'-NHAc)][Sar]PD[dR]V[Tic]VYLCG-NH2; thioether N-13)	50 to 200
CC(C)C[C@@H]1NC(=O)[C@H](Cc2cccs2)NC(=O)[C@H](C(C)C)NC(=O)[C@@H]2CCCN2C(=O)[C@H](C(C)C)NC(=O)[C@@H](CCCNC(=N)N)NC(=O)[C@H](CC(=O)O)NC(=O)[C@H](Cc2ccccn2)NC(=O)CN(C)C(=O)[C@H](Cc2ccc(-c3ccc(NC(=O)c4cccc(OCC(=O)O)c4)cc3)cc2)NC(=O)[C@H](Cc2ccc(-c3ccc(C(=O)O)cc3)cc2)NC(=O)[C@H](CN2CCOCC2)NC(=O)CSC[C@@H](C(=O)NCC(N)=O)NC1=O [Example 609] ({CH2CO}-[Ala(morpholin-4-yl)][Bip(4'-COOH)][Bip(4'-NH)](Benzoyl(3-OCH2COOH))[Sar][2Pal]D[dR]VPV[2Thi]LCG-NH2; thioether N-13)	< 50
COc1cccc(C[C@@H]2NC(=O)[C@H](C(C)C)NC(=O)[C@@H]3CCCN3C(=O)[C@H](C(C)C)NC(=O)[C@H](CCCNC(=N)N)NC(=O)[C@H](CC(=O)O)NC(=O)[C@@H]3CCCN3C(=O)CN(C)C(=O)[C@H](Cc3ccc(-c4ccccc4)cc3)NC(=O)[C@H](Cc3ccc(-c4ccccc4)cc3)NC(=O)[C@H](Cc3ccccc3)NC(=O)CSC[C@@H](C(=O)NCC(N)=O)NC(=O)[C@H](CC(C)C)NC2=O)c1 [Example 63] ({CH2CO}-F[Bip][Bip][Sar]PDRVPV[Phe(3-OMe)]LCG-NH2; thioether N-13)	200 to 2000
CC[C@H](C)[C@@H]1NC(=O)[C@@H]2CCN2C(=O)[C@H]([C@@H](C)CC)NC(=O)[C@@H](CCCNC(=N)N)NC(=O)[C@H](CC(=O)O)NC(=O)[C@H](Cc2ccc(O)cc2)NC(=O)CN(C)C(=O)[C@H](Cc2ccc(-c3ccc(NC(=O)c4cccc(C(=O)O)c4)cc3)cc2)NC(=O)[C@H](Cc2ccc(-c3ccccc3)cc2)NC(=O)[C@H](C(C)(C)C)NC(=O)CSC[C@@H](C(=O)NCC(N)=O)NC(=O)[C@H](CC(C)C)NC(=O)[C@H](Cc2ccc(O)cc2)NC1=O [Example 377] ({CH2CO}-[Tle][Bip][Bip(4'-(3-HOOC-benzamido))][Sar]YD[dR]I[Aze]IYLCG-NH2; thioether N-13)	50 to 200
CC[C@H](C)[C@@H]1NC(=O)[C@@H](CCCNC(=N)N)NC(=O)[C@H](CC(=O)O)NC(=O)[C@H](Cc2cnc[nH]2)NC(=O)CN(C)C(=O)[C@H](Cc2ccc(-c3ccc(NC(=O)c4ccc(OCC(=O)O)cc4)cc3)cc2)NC(=O)[C@H](Cc2ccc(-c3ccc(C(=O)NC)cc3)cc2)NC(=O)[C@H](CC2CCCCC2)NC(=O)CSC[C@@H](C(=O)NCC(N)=O)NC(=O)[C@H](CC(C)C)NC(=O)[C@H](Cc2cnc[nH]2)NC(=O)[C@H](C(C)C)NC(=O)[C@@H]2CCCN2C1=O [Example 395] ({CH2CO}-[Cha][Bip(4'-CONHMe)][Bip(4'-NH)](Benzoyl(4-OCH2COOH))[Sar]HD[dR]IPVHLCG-NH2; thioether N-13)	< 50
